# Where a name gives a salt, the structure may show the parent alone. Read-outs that look alike come from different tables or passages of the source.
# Tests used:
# DAT [1] = conditions: read-out: IC50 as DAT reuptake inhibitor; 3,4-dichloro-α-PVP series; cited from earlier work
# DAT [2] = target: DAT (Rattus norvegicus, UniProt P23977); test: Inhibition of [3H]dopamine uptake in rat caudate synaptosomes; type: biochemical; conditions: for Fold decrease in DAT potency relative to comparator compound: 8 vs 7, 15 vs 9, 16 vs 7, 17 vs 10
# Chain of DAT (Rattus norvegicus, UniProt P23977) (P23977 whole entry): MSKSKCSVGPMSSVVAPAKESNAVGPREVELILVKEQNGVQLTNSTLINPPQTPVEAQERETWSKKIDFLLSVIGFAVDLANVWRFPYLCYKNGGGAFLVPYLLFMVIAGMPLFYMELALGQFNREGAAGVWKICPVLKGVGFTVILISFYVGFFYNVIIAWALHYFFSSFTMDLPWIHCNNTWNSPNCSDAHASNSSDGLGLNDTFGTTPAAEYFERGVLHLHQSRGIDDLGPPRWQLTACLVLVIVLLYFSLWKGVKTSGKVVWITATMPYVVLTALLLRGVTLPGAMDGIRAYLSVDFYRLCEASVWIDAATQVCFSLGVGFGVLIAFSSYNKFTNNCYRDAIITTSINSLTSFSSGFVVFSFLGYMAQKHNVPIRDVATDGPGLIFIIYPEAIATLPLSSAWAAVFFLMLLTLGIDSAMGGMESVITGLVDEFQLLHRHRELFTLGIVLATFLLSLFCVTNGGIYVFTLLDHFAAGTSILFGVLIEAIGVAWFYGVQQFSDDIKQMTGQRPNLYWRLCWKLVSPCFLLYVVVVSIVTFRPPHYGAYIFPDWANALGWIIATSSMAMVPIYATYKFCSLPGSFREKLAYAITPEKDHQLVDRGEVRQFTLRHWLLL
# [3] = read-out: IC50, nM (SD), inhibition at DAT, 5 nM [3H]dopamine uptake, rat caudate synaptosomes, mean ± SD, n = 3
SMILES,IC50 (DAT [2]; [3]) [nM],IC50 (DAT [2]) [nM],further results
"CCCC(C(=O)c1ccc(Cl)c(Cl)c1)N1CCCC1 (stereo not drawn) [3,4-dichloro-α-PVP]",–,–,IC50 (DAT [1]): 43 nM
"CCCC(C(=O)c1ccccc1)N1CCCC1 (stereo not drawn) [compound 7, α-Pyrrolidinovalerophenone, reference compound]",17.5,–,–
"O=C(CN1CCCC1)c1ccccc1.O=C(O)C(=O)O [compound 8, 2-(1-Pyrolidinyl)-1-acetophenone Oxalate]",3250,–,Fold decrease in DAT potency relative to comparator compound (DAT [2]): 185 fold
CC(C)C(C(=O)c1ccccc1)N1CCCC1 (centres unmarked) [compound 11],92.3,–,–
"CCCCC(C(=O)c1ccccc1)N1CCCC1 (centres unmarked) [compound 12, 1-Phenyl-2-(pyrrolidin-1-yl)hexanone Oxalate]",11.6,–,–
"O=C(c1ccccc1)C(C1CCCC1)N1CCCC1 (centres unmarked) [compound 13, 2-Cyclopentyl-1-phenyl-2-(pyrrolidin-1-yl)ethanone Hydrochloride]",–,17.1,–
"O=C(c1ccccc1)C(C1CCCCC1)N1CCCC1 (centres unmarked) [compound 14, 2-Cyclohexyl-1-phenyl-2-(pyrrolidin-1-yl)ethanone Hydrochloride]",–,8.3,–
"CCCC(C(=O)c1ccccc1)N1CCCCC1 (centres unmarked) [compound 16, 1-Phenyl-2-(piperidin-1-yl)pentan-1-one Hydrochloride]",–,128,–
"O=C(O)C(=O)O.O=C1c2ccccc2CCC1N1CCCC1 (centres unmarked) [compound 17, 2-(Pyrrolidin-1-yl)-3,4-dihydronaphthalen-1(2H)-one Oxalate]",–,12900,Fold decrease in DAT potency relative to comparator compound (DAT [2]): 200 fold
